These results are taken from patent US20130053310A1 (NOVO NORDISK A/S, priority 2010, published 2013).

“Also recorded” adds a separate entry of the source.

The target of one data set is T1, glucagon receptor (Homo sapiens, UniProt P47871).
T1 construct: expressed in transfected cells
Description: Assay (I) Glucagon activity: cAMP biosensor (ACTOne) FLIPR assay in HEK-293 cells with cloned glucagon receptor. The format is cell-based. On the procedure: The cells (14000 per well) were incubated (37° C., 5% CO2) overnight in 384-well plates. Next day the cells were loaded with a calcium responsive dye that only distributed into the cytoplasm. Probenecid, an inhibitor of the organic anion transporter, was added to prevent the dye from leaving the cell. A PDE inhibitor was added to prevent formatted cAMP from being degraded. […] End point data were collected after 6 minutes. An increase in intracellular cAMP was proportional to an increased in calcium concentrations in the cytoplasm. When calcium was bound the dry a fluorescence signal was generated. EC50-values were calculated in Prism5.

Data set [1] in a line: Assay (II) ThT fibrillation assay for physical stability. The class given is physicochemical. The following applies: 250 μM in 1 μM ThT, 10 mM glycylglycine buffer pH 4.0, 45 hours at 37° C., shaking 960 rpm. The source says: This has traditionally been measured by visual inspection of the sample. However, that kind of measurement is very subjective and depending on the observer. Therefore, the application of a small molecule indicator probe is much more advantageous.
Here, F is the ThT fluorescence at the time t. The constant t0 is the time needed to reach 50% of maximum fluorescence.
Few of those intermediates nucleate to form a template onto which further intermediates may assembly and the fibrillation proceeds. The lag-time corresponds to the interval in which the critical mass of nucleus is built up and the apparent rate constant is the rate with which the fibril itself is formed.
Samples were prepared freshly before each assay. […] The pH of the sample was adjusted to the desired value using appropriate amounts of concentrated NaOH and HCl. Thioflavin T was added to the samples from a stock solution in H2O to a final concentration of 1 μM.
The plate was sealed with Scotch Pad (Qiagen).
Each run was initiated by incubating the plate at the assay temperature for 10 min. The plate was measured every 20 minutes for a desired period of time. Between each measurement, the plate was shaken and heated as described.
The supernatant was filtered through a 0.22 μm filter and an aliquot was transferred to a HPLC vial.
The measurement points were saved in Microsoft Excel format for further processing and curve drawing and fitting was performed using GraphPad Prism.
The data set may be fitted to Eq. (1).

T1 sequence (P47871 26-477): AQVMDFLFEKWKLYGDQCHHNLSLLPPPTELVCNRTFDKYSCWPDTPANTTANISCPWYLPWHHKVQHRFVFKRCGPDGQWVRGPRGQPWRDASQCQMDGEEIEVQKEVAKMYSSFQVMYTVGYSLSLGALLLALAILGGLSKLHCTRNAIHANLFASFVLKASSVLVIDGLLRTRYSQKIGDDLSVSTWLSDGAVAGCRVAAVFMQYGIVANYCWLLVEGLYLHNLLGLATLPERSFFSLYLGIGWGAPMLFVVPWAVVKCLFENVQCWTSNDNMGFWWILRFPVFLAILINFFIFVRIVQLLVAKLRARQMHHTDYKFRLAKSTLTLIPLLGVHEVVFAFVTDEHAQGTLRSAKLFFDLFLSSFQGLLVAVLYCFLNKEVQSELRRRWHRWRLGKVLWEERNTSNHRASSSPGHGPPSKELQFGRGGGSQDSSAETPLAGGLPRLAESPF

By EC50 is commonly meant the concentration that produces a half-maximal response. A low value points to greater potency. `CC(C)C[C@H](NC(=O)[C@H](Cc1ccc(O)cc1)NC(=O)[C@H](CCCCN)NC(=O)[C@H](CO)NC(=O)[C@H](Cc1ccc(O)cc1)NC(=O)[C@H](CC(=O)O)NC(=O)[C@H](CO)NC(=O)[C@@H](NC(=O)[C@H](Cc1ccccc1)NC(=O)[C@@H](NC(=O)CNC(=O)[C@H](CCC(N)=O)NC(=O)[C@H](CO)NC(=O)[C@@H](N)Cc1c[nH]cn1)[C@@H](C)O)[C@@H](C)O)C(=O)N[C@@H](CC(=O)O)C(=O)N[C@@H](CO)C(=O)N[C@@H](CCCNC(=N)N)C(=O)N[C@@H](CCCNC(=N)N)C(=O)N[C@@H](C)C(=O)N[C@@H](CCC(N)=O)C(=O)N[C@@H](CCC(=O)O)C(=O)N[C@@H](Cc1ccccc1)C(=O)N[C@H](C(=O)N[C@@H](CCC(N)=O)C(=O)N[C@@H](CCCNC(=N)N)C(=O)N[C@@H](CC(C)C)C(=O)N[C@@H](CC(C)C)C(=O)N[C@@H](CC(N)=O)C(=O)N[C@H](C(=O)O)[C@@H](C)O)C(C)C` [Example 1, [Glu^21, Arg^25, Leu^27]Glucagon] showed an EC50 at glucagon receptor of 0.017 nM. Moreover, the “ThT emission / fibrillation upon physical stress” value in data set [1] is “does not fibrillate; also recorded: no ThT emission occurred”.
